Data published in patent publication EP0580185A1, “Medicaments” (THE WELLCOME FOUNDATION LIMITED, priority 1988, dated 1990).
Where two headings read alike, the source gives them in different places.

Legend:
Plasmodium Falciparum = test: Activity against Plasmodium falciparum in vitro, G-3H-hypoxanthine incorporation; format: cell-based; details: cultures incubated for 48 hours, RPMI 1640 medium + 10% human plasma, read-out: In vitro IC₅₀
Method: The test method was modification of that described by Desjardins et al., Antimicrob. Agents and Chemotherapy 1979, 16, 710-718. Compounds were dissolved in ethanol at a concentration of 4.8x10⁻³M and dilutions down to 1x10⁻⁴M were made. The drug solutions were serially diluted using RPMI 1640 medium + 10% human plasma in microtitration plates. Parasitised and fresh red blood cells were added, together with G-³H-hypoxanthine, in RPMI 1640 medium + 10% human plasma and the cultures incubated for 48 hours. Cultures were then harvested, the particulate contents collected on a glass fibre filter paper and washed copiously with water. The filter papers were dried and the radioactivity measured using a scintillation counter. Infected untreated and uninfected untreated cultures were included as controls.

Plasmodium yoelii = test: Activity against Plasmodium yoelii in vivo, tail-blood smears at 96 hours; parameters: species or system mice; details: for ED50: Plasmodium yoelii, in Mus musculus, 96 h
Method: The naphthoquinone was suspended in 0.25% (w/v) celacol in water by milling for 16-24 hours at 26°C. The suspensions were subsequently serially diluted with 0.25% (w/v) celacol in water. At time 0, 0.1 ml of a suspension of 5x10⁶ P.yoelii-parasitised red blood cells/ml of phosphate saline were injected intravenously into 15-20 g mice through a tail vein. Groups of 5 mice per treatment were dosed orally at times 6, 22, 30, 46, 54, 70 and 78 hours with 0.2 ml of the drug suspension. The compound of Example 4 was also administered intravenously. Tail-blood smears were taken at 96 hours, stained with Giemsa and the percentage of red blood cells infected determined and compared to untreated, infected controls. Percent inhibition was correllated with dose to provide ED values.

Pneumocystis carinii = test: Prophylaxis of Pneumocystis carinii pneumonitis in dexamethasone-treated rats, lung histopathology score; format: in vivo; details: for No.with P. carinii Pneumonitis Total: per rats evaluated
Method: A: 2-[trans-4-(4-chlorophenyl)cyclohexyl]-3-hydroxy-1,4-naphthoquinone B: 2-[cis-4-(4-chlorophenyl)cyclohexyl]-3-hydroxy-1,4-naphthoquinone C: 2-[4-(4-chlorophenyl)cyclohexyl]-3-chloro-1,4-naphthoquinone D: 2-(4-t-butylcyclohexyl)-3-hydroxy-1,4-naphthoquinone E: 2-(4-t-butylcyclohexylmethyl)-3-hydroxy-1,4-naphthoquinone a) Prophylaxis Groups of 10 rats were treated with dexamethasone to allow latent Pneumocystis carinii infection to develop. Tetracycline was also administered to protect against bacterial infections. Test compound A was administered, by gavage, from day 4 of the dexamethasone treatment, at a dose of 100 mg/kg/day. Two control groups of rats were treated with dexamethasone and tetracycline only. A further group of rats was given cotrimoxazole (trimethoprim + sulphamethoxazole, 50 + 250 mg/kg/day, orally) in place of the test compound. At the end of the test period the animals were sacrificed and autopsies carried out. The lungs were removed and the right lung bisected. An imprint was made onto microscope slides and stained with toluidine blue. One half of the lung was placed in formalin, processed in paraffin blocks, sectioned and stained by the Gomori methanamine silver nitrate method. After autopsy the extent of P.carinii pneumonitis was scored under coded study as none if no organism seen; 1+ if P.carinii cysts seen sparsely distributed with less than one per 25 high power field (h.p.f.); 2+ if focal areas of P.carinii pneumonitis surrounded by 10 to 25 h.p.f of normal lung and 3+ if lung diffusely and extensively involved with organisms in almost all h.p.f.s.
b) Prophylaxis A further series of tests was carried out using the same general method as described above. Test compound A was administered at various dose levels, by gavage and in the diet.

[1] = Water-solubility compared with the parent compound; format: physicochemical; details: as compared with the parent compound of formula (V)
[2] = tested on: Pneumocystis carinii pneumonia; details: cited from earlier work
[3] = po, dosed orally at 6, 22, 30, 46, 54, 70 and 78 hours, read-out: In vivo ED₅₀ oral
[4] = 100 mg per kg/day, gavage, group of 10 rats
[5] = 100 mg per kg/day, gavage, group of 15 rats
[6] = 100 mg/kg/day by gavage from day 4 of dexamethasone treatment

Structure (SMILES): O=C1C(O)=C([C@H]2CC[C@H](c3ccc(Cl)cc3)CC2)C(=O)c2ccccc21 [Example 1C, 2-[trans-4-(4-Chlorophenyl)cyclohexyl]-3-hydroxy-1,4-naphthoquinone]
- IC50 (Plasmodium Falciparum): 0.002 µM
- ED50 (Plasmodium yoelii; [3]): 0.03 mg/kg
- No.with P. carinii Pneumonitis 1+ (Pneumocystis carinii; 10 mg per kg/day, gavage): 1
- No.with P. carinii Pneumonitis 2+ (Pneumocystis carinii; 10 mg per kg/day, gavage): 0
- No.with P. carinii Pneumonitis 3+ (Pneumocystis carinii; 10 mg per kg/day, gavage): 8
- No.with P. carinii Pneumonitis None (Pneumocystis carinii; 10 mg per kg/day, gavage): 1
- No.with P. carinii Pneumonitis Total (Pneumocystis carinii; 10 mg per kg/day, gavage): 9/10
- No.with P. carinii Pneumonitis 1+ (Pneumocystis carinii; 25 mg per kg/day, gavage): 2
- No.with P. carinii Pneumonitis 2+ (Pneumocystis carinii; 25 mg per kg/day, gavage): 1
- No.with P. carinii Pneumonitis 3+ (Pneumocystis carinii; 25 mg per kg/day, gavage): 4
- No.with P. carinii Pneumonitis None (Pneumocystis carinii; 25 mg per kg/day, gavage): 1
- No.with P. carinii Pneumonitis Total (Pneumocystis carinii; 25 mg per kg/day, gavage): 7/8
- No.with P. carinii Pneumonitis 1+ (Pneumocystis carinii; 50 mg per kg/day, gavage): 0
- No.with P. carinii Pneumonitis 2+ (Pneumocystis carinii; 50 mg per kg/day, gavage): 1
- No.with P. carinii Pneumonitis 3+ (Pneumocystis carinii; 50 mg per kg/day, gavage): 1
- No.with P. carinii Pneumonitis None (Pneumocystis carinii; 50 mg per kg/day, gavage): 7
- No.with P. carinii Pneumonitis Total (Pneumocystis carinii; 50 mg per kg/day, gavage): 2/9
- No.with P. carinii Pneumonitis 1+ (Pneumocystis carinii; [4]): 1
- No.with P. carinii Pneumonitis 2+ (Pneumocystis carinii; [4]): 0
- No.with P. carinii Pneumonitis 3+ (Pneumocystis carinii; [4]): 0
- No.with P. carinii Pneumonitis None (Pneumocystis carinii; [4]): 8
- No.with P. carinii Pneumonitis Total (Pneumocystis carinii; [4]): 1/9
- No.with P. carinii Pneumonitis 1+ (Pneumocystis carinii; [5]): 0
- No.with P. carinii Pneumonitis 2+ (Pneumocystis carinii; [5]): 0
- No.with P. carinii Pneumonitis 3+ (Pneumocystis carinii; [5]): 0
- No.with P. carinii Pneumonitis None (Pneumocystis carinii; [5]): 9
- No.with P. carinii Pneumonitis Total (Pneumocystis carinii; [5]): 0/9
- No.with P. carinii Pneumonitis 1+ (Pneumocystis carinii; 100 mg per kg/day, rations): 0
- No.with P. carinii Pneumonitis 2+ (Pneumocystis carinii; 100 mg per kg/day, rations): 0
- No.with P. carinii Pneumonitis 3+ (Pneumocystis carinii; 100 mg per kg/day, rations): 0
- No.with P. carinii Pneumonitis None (Pneumocystis carinii; 100 mg per kg/day, rations): 10
- No.with P. carinii Pneumonitis Total (Pneumocystis carinii; 100 mg per kg/day, rations): 0/10
- No of rats with P.carinii Pneumonitis 1+ (Pneumocystis carinii; [6]): 0
- No of rats with P.carinii Pneumonitis 2+ (Pneumocystis carinii; [6]): 0
- No of rats with P.carinii Pneumonitis 3+ (Pneumocystis carinii; [6]): 0
- No of rats with P.carinii Pneumonitis None (Pneumocystis carinii; [6]): 8
- No of rats with PCP/No of rats tested (Pneumocystis carinii; [6]): 0/8
- No.with P. carinii Pneumonitis 1+ (Pneumocystis carinii; 200 mg per kg/day, rations): 0
- No.with P. carinii Pneumonitis 2+ (Pneumocystis carinii; 200 mg per kg/day, rations): 0
- No.with P. carinii Pneumonitis 3+ (Pneumocystis carinii; 200 mg per kg/day, rations): 0
- No.with P. carinii Pneumonitis None (Pneumocystis carinii; 200 mg per kg/day, rations, Gomori-Grocott stain): 9
- No.with P. carinii Pneumonitis Total (Pneumocystis carinii; 200 mg per kg/day, rations): 0/9

Structure (SMILES): COC1=C([C@H]2CC[C@H](c3ccc(Cl)cc3)CC2)C(=O)c2ccccc2C1=O [Example 2, 2-Methoxy-3-[trans-4-(4-chlorophenyl)cyclohexyl]-1,4-naphthoquinone]
- IC50 (Plasmodium Falciparum): 0.36 µM
- ED50 (Plasmodium yoelii; [3]): 5.8 mg/kg

Structure (SMILES): NC1=C([C@H]2CC[C@H](c3ccc(Cl)cc3)CC2)C(=O)c2ccccc2C1=O [Example 3, 2-Amino-3-[trans-4-(4-chlorophenyl)cyclohexyl]-1,4-naphthoquinone]
- IC50 (Plasmodium Falciparum): 1.14 µM
- ED50 (Plasmodium yoelii; [3]): 1.26 mg/kg

Structure (SMILES): CN(C)CCCOC1=C([C@H]2CC[C@H](c3ccc(Cl)cc3)CC2)C(=O)c2ccccc2C1=O.Cl [Example 4, 2-[trans-4-(4-Chlorophenyl)cyclohexyl]-3-(3-dimethylaminopropoxy)-1,4-naphthoquinone hydrochloride]
- IC50 (Plasmodium Falciparum): 0.059 µM
- ED50 (Plasmodium yoelii; iv, administered intravenously, read-out: In vivo ED₅₀ i.v.): 2.08 mg/kg
- ED50 (Plasmodium yoelii; [3]): 0.61 mg/kg
- In vivo ED₅₀ oral (Plasmodium yoelii; dosed orally at 6, 22, 30, 46, 54, 70 and 78 hours, hydrochloride, 5760 min): 0.68 mg/kg

Structure (SMILES): CC(=O)OC1=C([C@H]2CC[C@H](c3ccc(Cl)cc3)CC2)C(=O)c2ccccc2C1=O [Example 5, 2-Acetoxy-3-[trans-4-(4-chlorophenyl)cyclohexyl]-1,4-naphthoquinone]
- IC50 (Plasmodium Falciparum): 0.068 µM
- water-solubility [1]: improved
- ED50 (Plasmodium yoelii; [3]): 0.12 mg/kg

Structure (SMILES): CCOC(=O)OC1=C([C@H]2CC[C@H](c3ccc(Cl)cc3)CC2)C(=O)c2ccccc2C1=O [Example 6, 2-Ethoxycarbonyloxy-3-[trans-4-(4-chlorophenyl)cyclohexyl]-1,4 naphthoquinone]
- IC50 (Plasmodium Falciparum): 0.08 µM
- ED50 (Plasmodium yoelii; [3]): 0.09 mg/kg

Structure (SMILES): CN(C)c1ccc(C(=O)OC2=C([C@H]3CC[C@H](c4ccc(Cl)cc4)CC3)C(=O)c3ccccc3C2=O)cc1 [Example 7, 2-[trans-4-(4-Chlorophenyl)cyclohexyl]-3-(4-dimethylaminobenzoyloxy)-1,4-naphthoquinone]
- IC50 (Plasmodium Falciparum): 0.22 µM
- ED50 (Plasmodium yoelii; [3]): 0.12 mg/kg

Structure (SMILES): N=C(N)c1ccc(OCCCCCOc2ccc(C(=N)N)cc2)cc1 [pentamidine]
- incidence of adverse reactions ([2]; AIDS patients): around 50%
- effective in AIDS patients ([2]; treatment of Pneumocystis carinii pneumonia): 50-70%
